Assay results: publication PMC9067978, “Design, synthesis, and molecular docking studies of novel pomalidomide-based PROTACs as potential anti-cancer agents targeting EGFR^WT and EGFR^T790M” (Journal of Enzyme Inhibition and Medicinal Chemistry, 2022)
“Also recorded” adds a separate entry of the source.

Assays:
EGFR = molecular target: T1, EGFR (Homo sapiens, UniProt P00533); experiment: Western blotting, EGFR degradation in A549 cells; assay type: cell-based
T1 construct: EGFR degradation activities of compounds in A549 cells; endogenous in cells; host or cells: A549
T1 sequence (P00533 25-1210): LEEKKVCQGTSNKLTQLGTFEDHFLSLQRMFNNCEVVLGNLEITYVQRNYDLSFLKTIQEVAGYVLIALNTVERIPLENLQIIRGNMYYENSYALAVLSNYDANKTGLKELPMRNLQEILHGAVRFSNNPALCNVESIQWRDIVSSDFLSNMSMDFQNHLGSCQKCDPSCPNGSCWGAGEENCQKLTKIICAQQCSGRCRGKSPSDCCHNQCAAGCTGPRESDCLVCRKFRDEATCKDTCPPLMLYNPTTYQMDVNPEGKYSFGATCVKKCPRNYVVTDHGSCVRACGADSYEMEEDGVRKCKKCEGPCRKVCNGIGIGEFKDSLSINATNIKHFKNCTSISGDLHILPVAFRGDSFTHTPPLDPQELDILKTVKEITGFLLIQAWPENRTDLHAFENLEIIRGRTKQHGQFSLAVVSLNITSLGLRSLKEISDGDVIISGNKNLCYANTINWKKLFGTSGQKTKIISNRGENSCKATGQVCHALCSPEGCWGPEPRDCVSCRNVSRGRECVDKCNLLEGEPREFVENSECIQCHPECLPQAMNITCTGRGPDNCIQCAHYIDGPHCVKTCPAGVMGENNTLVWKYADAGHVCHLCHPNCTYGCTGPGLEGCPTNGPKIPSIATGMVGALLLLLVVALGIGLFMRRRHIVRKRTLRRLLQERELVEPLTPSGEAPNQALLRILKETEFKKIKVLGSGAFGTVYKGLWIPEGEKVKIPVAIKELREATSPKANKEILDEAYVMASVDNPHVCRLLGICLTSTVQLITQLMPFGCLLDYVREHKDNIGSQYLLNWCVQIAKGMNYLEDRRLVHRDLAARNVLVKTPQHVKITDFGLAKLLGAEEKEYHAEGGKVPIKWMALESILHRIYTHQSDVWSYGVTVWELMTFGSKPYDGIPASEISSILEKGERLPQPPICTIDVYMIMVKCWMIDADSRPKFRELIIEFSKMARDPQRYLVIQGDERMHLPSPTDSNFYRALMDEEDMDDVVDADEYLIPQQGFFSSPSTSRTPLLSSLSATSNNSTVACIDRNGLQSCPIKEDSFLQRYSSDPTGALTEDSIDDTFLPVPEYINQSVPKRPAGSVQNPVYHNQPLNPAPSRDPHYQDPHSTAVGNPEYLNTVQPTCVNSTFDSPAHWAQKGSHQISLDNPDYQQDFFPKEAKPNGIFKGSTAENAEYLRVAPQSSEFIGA
Procedure: Following this, the target compounds 15–21 tethering various E3 ligases ligand were chosen as representative PROTACs for further degradation study based on temporal data.
Figure 4. (A) EGFR degradation activities of compounds in A549 cells. Cells were treated for 48 h with concentration of 0.1 and 1 µM. (B) Effects of concentration-dependent EGFR degradation by compounds 15–21 in A549 cell lines. Cells were treated for 48 h with a concentration from 1 nM to 10 µM. EGFR protein was examined by Western blotting analysis and EGFR degradation rate was quantified by densitometry and normalised to the corresponding density of β-actin protein (n ¼ 3). TEXT PRINTED IN THE PICTURE: (B) Comp 15: DC50 = 43.4 nm | (B) Comp 16: DC50= 32.9 nm DOUBTS OF THE COPYIST ABOUT THIS PICTURE: Comp 15, DC50: 43.4 is small blurred print; the 3 could be 8 and the digits are not certain / Comp 16, DC50: 32.9 is small blurred print; the 3 could be 8 and the 9 could be 8 or 0
We set nine concentration gradients ranging from […] to 10 µM to determine the degradation activity of all tested compounds and calculated the DC50 (concentration that caused deletion of 50% of EGFR) values.
(§1) At a concentration of 100 nM, the time-dependent degradation activities of compounds 15–21 were also examined (Figure 5(A)).
Figure 5. (A) EGFR time-dependent degradation by compound 16 in A549 cell lines. Cells were treated with100 nM of 15–21 for indicated time points. Western blotting was used to evaluate EGFR protein, and densitometry was used to measure EGFR degradation, which was adjusted to the density of β-actin protein (n ¼2). (B) Compounds 15 and 16 have EGFR degradation and phosphorylation inhibitory action in A549 cells. The cells were exposed to concentrations of 0.1, 0.3, and 1 µM. Erlotinib were utilised for comparison. TEXT PRINTED IN THE PICTURE: (A) Comp 15: Dmax = 85 % @ 96 h; Degradation: 9 (4 h; 100 nM); Degradation: 22 (8 h; 100 nM); Degradation: 42 (12 h; 100 nM); Degradation: 83 (24 h; 100 nM); Degradation: 84 (36 h; 100 nM); Degradation: 82 (48 h; 100 nM); Degradation: 82 (72 h; 100 nM); Degradation: 85 (96 h; 100 nM) | (A) Comp 16: Dmax = 96 % @72 h; Degradation: 32 (4 h; 100 nM); Degradation: 43 (8 h; 100 nM); Degradation: 67 (12 h; 100 nM); Degradation: 69 (24 h; 100 nM); Degradation: 78 (36 h; 100 nM); Degradation: 85 (48 h; 100 nM); Degradation: 96 (72 h; 100 nM); Degradation: 94 (96 h; 100 nM) DOUBTS OF THE COPYIST ABOUT THIS PICTURE: Comp 15, Dmax: print is blurred, 85 % @ 96 h is the best reading (85 or 86) / Comp 16, Dmax: print is small and blurred, 96 % @72 h is the best reading (96 or 95; the % sign is unclear) / Comp 15, Degradation row: print is blurred, 83/84/82/82/85 are best readings (3, 5, 8 are hard to tell apart) / Comp 16, Degradation row: print is blurred, 67/69/78/85/96/94 are best readings (5, 6, 8, 9 are hard to tell apart) / The Degradation rows are printed under the blot lanes with no unit. The value 0 under the 0.1 % DMSO control lane was not assigned to any compound.
Cells were seeded in 6-well plates at 1 × 10^6 per well, incubated at 37 °C with 5% CO2 for 24 h before drug exposure. Cells were treated with different concentrations of synthesised compounds for […], then collected and suspended in lysis buffer (Beyotime) and centrifuged for 20 min at 12000 rpm, later removed the insoluble material. […] The results were detected by an enhanced chemiluminescence system (Mill-pore). […]

EGFR^T790M = molecular target: T2, EGFR^T790M (Homo sapiens, UniProt P00533, T790M); experiment: EGFR^T790M kinase inhibitory assay (HTRF); assay type: biochemical; details: ATP 1.65 µM, mean ± S.D of three experiments, read-out: EGFR^790M IC50
T2 construct: purchased Sigma
T2 sequence (P00533 25-1210 T790M): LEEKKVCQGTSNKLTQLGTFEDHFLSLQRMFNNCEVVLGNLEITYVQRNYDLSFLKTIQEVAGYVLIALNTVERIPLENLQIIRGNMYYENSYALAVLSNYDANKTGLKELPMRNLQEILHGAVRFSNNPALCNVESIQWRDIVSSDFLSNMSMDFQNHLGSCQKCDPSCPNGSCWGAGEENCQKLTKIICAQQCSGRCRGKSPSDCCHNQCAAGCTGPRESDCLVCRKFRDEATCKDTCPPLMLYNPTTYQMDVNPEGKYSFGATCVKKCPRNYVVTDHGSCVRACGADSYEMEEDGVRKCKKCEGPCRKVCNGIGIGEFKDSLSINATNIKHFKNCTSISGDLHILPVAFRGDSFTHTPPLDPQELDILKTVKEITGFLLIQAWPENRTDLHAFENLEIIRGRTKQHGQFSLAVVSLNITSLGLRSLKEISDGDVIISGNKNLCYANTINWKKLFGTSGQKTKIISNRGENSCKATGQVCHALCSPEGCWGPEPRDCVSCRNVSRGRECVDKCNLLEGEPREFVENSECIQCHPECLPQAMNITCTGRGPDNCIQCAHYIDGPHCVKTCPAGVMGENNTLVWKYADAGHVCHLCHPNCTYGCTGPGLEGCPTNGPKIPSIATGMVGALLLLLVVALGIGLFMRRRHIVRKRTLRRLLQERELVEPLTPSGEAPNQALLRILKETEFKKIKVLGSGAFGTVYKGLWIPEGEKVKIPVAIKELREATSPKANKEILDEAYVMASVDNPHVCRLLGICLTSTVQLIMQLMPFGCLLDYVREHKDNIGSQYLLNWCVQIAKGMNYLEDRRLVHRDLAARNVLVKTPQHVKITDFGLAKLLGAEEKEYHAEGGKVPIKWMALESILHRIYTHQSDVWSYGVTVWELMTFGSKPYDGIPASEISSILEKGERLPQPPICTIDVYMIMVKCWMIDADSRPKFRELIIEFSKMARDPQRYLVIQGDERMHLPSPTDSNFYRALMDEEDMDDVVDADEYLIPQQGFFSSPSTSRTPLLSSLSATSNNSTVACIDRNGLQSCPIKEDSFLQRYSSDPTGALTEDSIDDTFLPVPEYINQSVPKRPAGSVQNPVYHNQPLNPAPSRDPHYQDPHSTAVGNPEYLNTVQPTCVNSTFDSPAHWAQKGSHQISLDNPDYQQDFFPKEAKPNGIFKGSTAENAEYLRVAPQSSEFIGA
Procedure: (§2) This test used HTRF[44] assay with EGFR^WT and EGFR^T790M (Sigma). For the first 5 minutes, the evaluated compounds were incubated with EGFR^WT and/or EGFR^T790M and their substrates in the enzymatic buffer. […] The assay was performed at 37 °C for 30 minutes. The addition of EDTA-containing detection reagents halted the process. After one hour detection period, GraphPad Prism 5.0 was used to calculate the IC50 values. For each concentration, three separate trials were carried out.

HCT-116 = experiment: MTT anti-proliferative assay, HCT-116
Procedure: (§5) The anti-proliferative activity was quantified in the following way. At a density of 3–8 × 10^3 cells per well, human cancer cell lines were introduced to 96-well plates. The wells were then incubated at 37 °C for 12 hours in 5% CO2 incubator. To determine the DMSO content, the culture media was swapped with 0.1 ml of fresh medium containing graded amounts of the test compounds for each well. Incubation time for the wells was two days. The cells were then cultured in 100 µl MTT solution (5 µg ml^−1) for another 4 hours in each well.
(§6) The absorbance of each well was measured at 490 nm with an automated ELISA reader system (TECAN, CHE) after MTT-formazan crystals were dissolved in 100 µl of DMSO. The IC50 values were calculated using nonlinear regression fitting models (Graph Pad, Prism Version 5). The results were expressed as means ± SD and were based on the average of three separate, duplicate trials.

EGFR^WT = molecular target: T3, EGFR^WT (Homo sapiens, UniProt P00533); experiment: EGFR^WT kinase inhibitory assay (HTRF); assay type: biochemical; details: ATP 1.65 µM, mean ± S.D of three experiments
T3 construct: purchased Sigma
T3 sequence (P00533 25-1210): as the sequence (P00533 25-1210) above
Procedure: as §2

EGFR phosphorylation = experiment: Western blotting, EGFR phosphorylation in A549 cells; assay type: cell-based, human; details: A549 cells, 0.1, 0.3 and 1 µM, erlotinib for comparison
Procedure: as §1
(§3) Figure 5. (A) EGFR time-dependent degradation by compound 16 in A549 cell lines. Cells were treated with100 nM of 15–21 for indicated time points. Western blotting was used to evaluate EGFR protein, and densitometry was used to measure EGFR degradation, which was adjusted to the density of β-actin protein (n ¼2). (B) Compounds 15 and 16 have EGFR degradation and phosphorylation inhibitory action in A549 cells. The cells were exposed to concentrations of 0.1, 0.3, and 1 µM. Erlotinib were utilised for comparison. […]
(§4) Cells were seeded in 6-well plates at 1 × 10^6 per well, incubated at 37 °C with 5% CO2 for 24 h before drug exposure. […] The results were detected by an enhanced chemiluminescence system (Mill-pore). […]

A549 = experiment: MTT anti-proliferative assay, A549
Procedure: as §5, §6

Akt phosphorylation = experiment: Western blotting, Akt phosphorylation in A549 cells; assay type: cell-based, human; details: A549 cells, 0.1, 0.3 and 1 µM, erlotinib for comparison
Procedure: as §1, §3, §4

caspase-3 = experiment: Caspase-3 determination (ELISA) in HepG-2 cells; assay type: cell-based, human; details: HepG-2, 3.02 µM, 24 hours
Procedure: Caspase-3 activation was measured using a Caspase-3 ELISA Kit (KHO1091).

[1] = ratio of cytotoxic IC50 to erlotinib

- Dmax at 0.1 µM (EGFR; A549, A549 cells, 100 nM, time course, reached at 96 h (15) and 72 h (16), read-out: Dmax, maximum EGFR degradation rate): 96%
- DC50 (EGFR; A549 cells, 48 h, Western blotting densitometry, read-out: DC50 (concentration that caused deletion of 50% of EGFR)): 32.9 nM
- concentration-dependent EGFR degradation, in words (EGFR; A549 cells, 48 h, concentration series up to 10 µM): hook effect
- IC50 (EGFR^T790M): 4020 ± 190 nM
- IC50 (HCT-116; Homo sapiens, HCT-116, read-out: IC50 HCT-116): 3320 ± 150 nM
- IC50 (EGFR^WT): 100 ± 30 nM
- IC50 (A549; Homo sapiens, A549, read-out: IC50 A549): 2690 ± 90 nM
Structure (SMILES): Cn1c(=O)c(C(=O)NNCCOCCOCC(=O)Nc2cccc3c2C(=O)N(C2CCC(=O)NC2=O)C3=O)nc2ccccc21 (stereo not drawn) [Compound 16, N-(2-(2,6-dioxopiperidin-3-yl)-1,3-dioxoisoindolin-4-yl)-2-(2-(2-(2-(4-methyl-3-oxo-3,4-dihydroquinoxaline-2-carbonyl) hydrazinyl)ethoxy)ethoxy) acetamide]
- folds more active than erlotinib, HCT-116 (HCT-116; [1]): 5.04 folds
- inhibition of EGFR phosphorylation, in words (EGFR phosphorylation): effectively displayed inhibitory activity
- folds more active than erlotinib, A549 (A549; [1]): 7.18 folds
- inhibition of Akt phosphorylation, in words (Akt phosphorylation): effectively displayed inhibitory activity; also recorded: comparable to erlotinib
- increase of caspase-3 level vs control cells (caspase-3): 6.31 fold
